Results as given in patent US5595973A, “Protection of hemopoietic cells during chemotherapy or radiotherapy” (Biomeasure Incorporated, priority 1994, dated 1997).
Where a SMILES comes first, the peptide text is derived from it.

Key:
Assay type in all cases: in vivo, BALB/C mice
hemopoietic cells = test: Proliferation of hemopoietic cells and tolerance of multiple cycles of Ara-C chemotherapy
Protocol: (§1) A number of assays were performed to show the effect of combining the hemopoiesis inhibitory factor and hemopoiesis growth factor on the proliferation of hemopoietic cells during chemotherapy.
(§2) Three groups of BALB/C mice were used in this study. Mice of the three groups were treated as follows (i.e., with Ara-C, the abbreviation of cytosine arabinoside, as the cytotoxic agent, AcSDKP as the hemopoiesis inhibitory factor, and GM-CSF as the hemopoiesis growth factor):
(§3) In each group, the animals were subjected to a sequence of three cycles of chemotherapy, i.e., Cycle I (Days 0-20), Cycle II (Days 21-37), and Cycle III (Days 38-56). Note that animals in each group were sacrificed on specific days for collection of blood samples, eliminating the artifact that may have been induced by intensive repetitive bleedings of the same animals.
(§4) Minipump implantations and excisions: The 200 μl capacity ALZET™ osmotic minipump Model 2001 (Alza Corporation, Palo Alto, Calif.) primed to deliver 1.0 μL/hour for 7 days was used for continuously administering the 100 ng/hour of AcSDKP in each cycle. More specifically, during each cycle, AcSDKP primed pumps were implanted s.c. prior to the first administration of Ara-C in the A.M. of day zero and excised in the A.M. of day 7. The first administration of Ara-C was in the A.M. of day zero and the last administration in the A.M. of day 6 (q.d., or once per day).
Treatment cycle: For the animals of Group 3, each cycle consists of a period in which Ara-C and AcSDKP were administered, a period in which the administered Ara-C and AcSDKP were purged, a period in which GM-CSF was administered, and, finally, a further recovery period. More specifically, after 7 consecutive days of Ara-C treatment during which time AcSDKP was administered by continuous s.c. infusion (see the preceding paragraph), a 2-day period followed so as to allow for purging of both AcSDKP and Ara-C. […]

polymorphonuclear cells = test: Polymorphonuclear cell counts in mice during three cycles of Ara-C chemotherapy; details: Group 3 (Ara-C+AcSDKP+GM-CSF) vs Group 2 (Ara-C+GM-CSF)
Protocol: as §1, §2, §3, §4
(§5) Treatment cycle: For the animals of Group 3, each cycle consists of a period in which Ara-C and AcSDKP were administered, a period in which the administered Ara-C and AcSDKP were purged, a period in which GM-CSF was administered, and, finally, a further recovery period. More specifically, after 7 consecutive days of Ara-C treatment during which time AcSDKP was administered by continuous s.c. infusion (see the preceding paragraph), a 2-day period followed so as to allow for purging of both AcSDKP and Ara-C. GM-CSF was then administered for 4 days (b.i.d., or twice per day), and the animals were permitted 4-8 more days at the end of the GM-CSF administration to recover before the initiation of the subsequent cycle (as in Cycles I and II) or before the collection of the last blood samples (as in Cycle III).
(§6) Blood sample collection: Blood samples (maximum attainable volume) for clinical pathology evaluations were collected from mice at euthanasia. The mice were food-fasted overnight prior to blood collection and samples were collected by puncture of the retro-orbital sinus after anesthetization by CO2 inhalation.
(§7) Analysis of blood samples: Hematology data were collected electronically and processed by the HUMMINGBIRD™ computer system (Laboratories Consulting, Inc., Madison, Wis.). Blood samples were processed and evaluated for the parameters specified (polymorphonuclear cell, platelet, and white blood cell counts in 10^3 cells/[…] as shown in Tables 2 and 3) using a Sysmex TOAE-2500 hematology analyzer (TOA Medical Electronics, Kobe, Japan).
(§8) The data in Table 2 (as well as in Table 3) are log transformed to minimize the effect of outliers and the geometric means of the data are used for the analyses. The difference in the means between two test groups are compared for each of three different stages, i.e., chemotherapy (days 0-4, 21-25 and 38-42 in Cycles I, II and III, respectively), nadir (days 5-10, 26-31 and 43-48 in Cycles I, II and III, respectively), or recovery (days 11-20, 32-37 and 49-56 in Cycles I, II and III, respectively). Significant differences are marked by a large dot, which stands for P<0.003, a statistically significant p-value for data compared between two groups combined over the three cycles.

white blood cells = test: White blood cell counts in mice during three cycles of Ara-C chemotherapy; details: Group 3 (Ara-C+AcSDKP+GM-CSF) vs Group 2 (Ara-C+GM-CSF)
Protocol: as §1, §2, §3, §4, §5, §6, §7
as §8, with “See the right-hand column "percent change," i.e., (cell count from Group 2/cell count from Group 1)×100%, in Table 2. The data” for “The data”

platelets = test: Platelet counts in mice during three cycles of Ara-C chemotherapy; details: Group 3 (Ara-C+AcSDKP+GM-CSF) vs Group 2 (Ara-C+GM-CSF)
Protocol: as §1, §2, §3, §4, §5, §6, §7
as §8, with “See the right-hand column "percent change," i.e., (cell count from Group 2/cell count from Group 1)×100%, in Table 2. The data” for “The data”

[1] = Cycle I, Chemotherapy (days 0-4)
[2] = Cycle I, Recovery (days 11-20), marked significant
[3] = Cycle II, Chemotherapy (days 21-25)
[4] = Cycle II, Recovery (days 32-37), marked significant
[5] = Cycle III, Chemotherapy (days 38-42)
[6] = Cycle III, Recovery (days 49-56), marked significant

## CC(=O)N[C@@H](CO)C(=O)N[C@@H](CC(=O)O)C(=O)N[C@@H](CCCCN)C(=O)N1CCC[C@H]1C(=O)O [AcSDKP, N-Acetyl-Ser-Asp-Lys-Pro] (Ac-SDKP-OH)
Hemopoietic cells; Group 3 (Ara-C+AcSDKP+GM-CSF) vs Group 2 (Ara-C+GM-CSF)
  Blood cell levels, effect of AcSDKP present during chemotherapy: contributed to subsequent enhancement of blood cell levels by GM-CSF
Hemopoietic cells; combined use of AcSDKP and GM-CSF with Ara-C (Group 3)
  Ability to tolerate multiple cycles of chemotherapy: allows multiple cycles of chemotherapy
Polymorphonuclear cells; [1]
  Percent change, polymorphonuclear cell count: -66.466%
Polymorphonuclear cells; Cycle I, Nadir (days 5-10)
  Percent change, polymorphonuclear cell count: -27.344%
Polymorphonuclear cells; [2]
  Percent change, polymorphonuclear cell count: 52.314%
Polymorphonuclear cells; [3]
  Percent change, polymorphonuclear cell count: -44.682%
Polymorphonuclear cells; Cycle II, Nadir (days 26-31)
  Percent change, polymorphonuclear cell count: 130.128%
Polymorphonuclear cells; [4]
  Percent change, polymorphonuclear cell count: 100.223%
Polymorphonuclear cells; [5]
  Percent change, polymorphonuclear cell count: 37.246%
Polymorphonuclear cells; Cycle III, Nadir (days 43-48)
  Percent change, polymorphonuclear cell count: 42.105%
Polymorphonuclear cells; [6]
  Percent change, polymorphonuclear cell count: 95.829%
Polymorphonuclear cells; recovery periods, p=<0.0001
  Polymorphonuclear cell counts, change in words: significantly increased
White blood cells; [1]
  Percent change, white blood cell count: -39.0687%
White blood cells; Cycle I, Nadir (days 5-10)
  Percent change, white blood cell count: -47.8669%
White blood cells; [2]
  Percent change, white blood cell count: 29.1779%
White blood cells; [3]
  Percent change, white blood cell count: -57.7294%
White blood cells; Cycle II, Nadir (days 26-31)
  Percent change, white blood cell count: -10.6607%
White blood cells; [4]
  Percent change, white blood cell count: 44.2989%
White blood cells; [5]
  Percent change, white blood cell count: 19.207%
White blood cells; Cycle III, Nadir (days 43-48)
  Percent change, white blood cell count: -9.4556%
White blood cells; [6]
  Percent change, white blood cell count: 50.2142%
White blood cells; recovery periods, p=0.0001
  White blood cell counts, change in words: significantly increased
platelets; [1]
  Percent change, platelet count: -53.4439%
platelets; Cycle I, Nadir (days 5-10), marked significant
  Percent change, platelet count: 20.9005%
platelets; Cycle I, Recovery (days 11-20)
  Percent change, platelet count: 23.6811%
platelets; [3]
  Percent change, platelet count: 29.203%
platelets; Cycle II, Nadir (days 26-31), marked significant
  Percent change, platelet count: 49.9274%
platelets; Cycle II, Recovery (days 32-37)
  Percent change, platelet count: 13.851%
platelets; [5]
  Percent change, platelet count: 36.6101%
platelets; Cycle III, Nadir (days 43-48), marked significant
  Percent change, platelet count: 32.1586%
platelets; Cycle III, Recovery (days 49-56)
  Percent change, platelet count: -0.7018%
platelets; nadir periods, p=0.0006
  Platelet counts, change in words: significantly increased
